According to publication PMC2916918, “Inorganic pyrophosphatase in uncultivable hemotrophic mycoplasmas: identification and properties of the enzyme from Mycoplasma suis” (BMC Microbiology, 2010):

Molecular target: T1, recombinant M. suis sPPase (rPPase) (Mycoplasma suis, UniProt C4RA40)
T1 construct: gene ppa; tetramer (80 kDa) inferred from immunoblot of native cells only
T1 sequence (C4RA40 1-164): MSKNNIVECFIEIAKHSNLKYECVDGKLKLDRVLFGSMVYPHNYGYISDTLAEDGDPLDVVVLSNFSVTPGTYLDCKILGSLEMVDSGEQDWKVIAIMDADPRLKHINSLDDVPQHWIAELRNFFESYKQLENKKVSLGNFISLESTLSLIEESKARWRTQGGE
Assay: phosphate release, molybdate/ascorbic acid colorimetry (Saheki)
Assay type: biochemical
Conditions: 50 mM MgCl2, pH 9.0, varied PPi (Figure 4E); standard assay: 5 mM Mg2+, 100 mM Tris pH 7.5, 1 mM PPi, 55 °C

O=P(O)(O)OP(=O)(O)O [PPi]
phosphate release, molybdate/ascorbic acid colorimetry (Saheki): Activity of M. suis rPPase using different PPi concentrations.
